Here are results for 14 substances from US20030194738A1, “Antisense oligonucleotide compositions and methods for the modulation of activating protein 1” (priority 1997, published 2003).

The data set has as its system c-fos mRNA. Kind of data set: c-fos mRNA expression in TPA-induced A549 cells, Northern blotting. The data set is classed as cell-based, human. To be noted: for c-fos mRNA % CONTROL: 400 nM oligonucleotide with LIPOFECTIN, control is TPA induction, at 1 hour, in A549 cells; for inhibition of c-fos mRNA expression: 400 nM oligonucleotide, TPA-induced A549 cells. The method, then:
In order to evaluate the activity of potential c-fos and c-jun modulating oligonucleotides, A549 cells were grown in T-75 flasks until 80-90% confluent. (Cell line A549 is available from, inter alia, the American Type Culture Collection, Rockville, Md., as ATCC No. CCL-185.) At this time, the cells were washed twice with 10 mL of media (DMEM), followed by the addition of 5 mL of DMEM containing 20 μg/mL of LIPOFECTIN™ (i.e., DOTMA/DOPE (N-[1-(2,3-dioleyloxy)propyl]-N,N,N-[…] chloride/dioleoylphosphatidyl ethanolamine)). The oligonucleotides were added from a 10 μM stock solution to a final concentration of 400 nM, and the two solutions were mixed by swirling the flasks. After 4 hours at 37° C., the medium was replaced with DMEM containing 10% serum. At this point, 1 μM 12-O-tetradecanoylphorbol 13-acetate (TPA) was added to induce expression of c-fos and c-jun. Cells were extracted in guanidinium one hour later, and the c-fos and c-jun mRNA expression was determined by Northern blotting. Probes for human c-jun and c-fos were PCR products prepared using primers based on the published sequences thereof (respectively, Hattori et al., Proc. Natl. Acad. Sci. U.S.A., 1988, 85:9148, and Van Straaten et al., Proc. Natl. Acad. Sci. U.S.A., 1983, 80:3183).
Finally, it can also be seen from Table 5 that neither active oligonucleotide has any detectable effect on mRNA levels of the other active oligonucleotide's target.
Once oligonucleotides that modulate c-Fos or c-Jun are identified, derivative or modified oligonucleotides having the same sequence thereas are prepared. In order to evaluate the effect of chemical modifications to oligonucleotides to c-fos and c-jun, the modified oligonucleotides described in Tables 8 and 9 were prepared. The effect of the c-fos-targeted oligonucleotides on c-fos RNA levels were evaluated as described in Examples 2-3. […] Other modified oligonucleotides of the invention are evaluated in like fashion. In order to evaluate the effect of PNA antisense analogs, the PNA analogs of the invention are introduced into appropriate cell lines by microinjection according to the method of Hanvey et al. (Science, 1992, 258:1481). Intracellular delivery of PNA analogs is confirmed by the use of a fluorescently tagged PNA antisense analog conjugate such as, e.g., ISIS 14240.

With “TTG-CAG-GCA-GGT-CGG-TGA-GC (TTGCAGGCAGGTCGGTGAGC; antisense; all phosphorothioate, sugars by position and methylation of C not given here) [ISIS 10634]”, the “c-fos mRNA % CONTROL” value amounted to 42 % CONTROL. Consider “CCC-CCA-CTT-CCG-CCC-ACT-AT (CCCCCACTTCCGCCCACTAT; antisense; DNA, all phosphorothioate, methylation of C not given here) [ISIS 10644]”, for which the “c-fos mRNA % CONTROL” value is given as 104 % CONTROL. As for “CGG-TCA-CTG-CTC-GTT-CGC-TG (CGGTCACTGCTCGTTCGCTG; antisense; all phosphorothioate, sugars by position and methylation of C not given here) [ISIS 10629]”, the “c-fos mRNA % CONTROL” value is reported as 72 % CONTROL. As for “CGC-GCC-CGG-CCT-GAA-AAT-TT (CGCGCCCGGCCTGAAAATTT; antisense; DNA, all phosphorothioate, methylation of C not given here) [ISIS 10642]”, the “c-fos mRNA % CONTROL” value was determined as 87 % CONTROL. On to “GGT-GCC-GGC-TGC-CTC-CCC-TT (GGTGCCGGCTGCCTCCCCTT; antisense; all phosphorothioate, sugars by position and methylation of C not given here) [ISIS 10638]”, for which the “c-fos mRNA % CONTROL” value is 22 % CONTROL and the “inhibition of c-fos mRNA expression” value amounted to 78%. For the substance “ACC-GTG-GGA-ATG-AAG-TTG-GC (ACCGTGGGAATGAAGTTGGC; antisense; all phosphorothioate, sugars by position and methylation of C not given here) [ISIS 10632]”, the “c-fos mRNA % CONTROL” value came to 63 % CONTROL. As for “AGC-TCC-CTC-CTC-CGG-TTG-CG (AGCTCCCTCCTCCGGTTGCG; antisense; all phosphorothioate, sugars by position and methylation of C not given here) [ISIS 10633]”, the “c-fos mRNA % CONTROL” value is on record as 24 % CONTROL and the “inhibition of c-fos mRNA expression” value turned out to be 76%. On to “TCC-CGT-CCC-CAG-AAG-CAG-TA (TCCCGTCCCCAGAAGCAGTA; antisense; DNA, all phosphorothioate, methylation of C not given here) [ISIS 10641]”, for which the “c-fos mRNA % CONTROL” value is on record as 68 % CONTROL. The same measure, in the same setting: with “TGC-TCG-CTG-CAC-ATG-CGG-TT (TGCTCGCTGCACATGCGGTT; antisense; all phosphorothioate, sugars by position and methylation of C not given here) [ISIS 10628]” the figure was 79 % CONTROL; with “CCC-TCC-CAG-GCT-CAA-GTC-AT (CCCTCCCAGGCTCAAGTCAT; antisense; DNA, all phosphorothioate, methylation of C not given here) [ISIS 10646]”, 100 % CONTROL.

“TGC-TGC-TGC-CCT-TGC-GGT-GG (TGCTGCTGCCCTTGCGGTGG; antisense; all phosphorothioate, sugars by position and methylation of C not given here) [ISIS 10636]”: the “c-fos mRNA % CONTROL” value worked out at 42 % CONTROL. Turning to “TGG-CAC-GGA-GCG-GGC-TGT-CT (TGGCACGGAGCGGGCTGTCT; antisense; all phosphorothioate, sugars by position and methylation of C not given here) [ISIS 10635]”, the “c-fos mRNA % CONTROL” value was determined as 12 % CONTROL and the “inhibition of c-fos mRNA expression” value is 88%.

For “CCC-CTC-CAG-CAG-CTA-CCC-TT (CCCCTCCAGCAGCTACCCTT; antisense; all phosphorothioate, sugars by position and methylation of C not given here) [ISIS 10640]”, the “c-fos mRNA % CONTROL” value is 87 % CONTROL. For “CCT-CAC-AGG-GCC-AGC-AGC-GT (CCTCACAGGGCCAGCAGCGT; antisense; all phosphorothioate, sugars by position and methylation of C not given here) [ISIS 10637]”, the “c-fos mRNA % CONTROL” value was 35 % CONTROL.
